Experimental data published in patent US20250281489A1, “BIOMARKERS FOR PREDICTING SENSITIVITY TO CANCER TREATMENTS” (Genentech, Inc., priority 2011, published 2025).

How the values were obtained:
[1] = test system: mutant AKT1 enzymes (E17K, L52R and D323H); assay: biochemical activity assay, recombinant full-length mutant AKT1 enzymes; conditions: in words
Text: (§1) Several ATP-competitive and allosteric small molecule inhibitors of AKT are in development and/or clinical trials (Mattmann et al., (2011). Expert Opin Ther Pat.; Pal et al., (2010). Expert Opin Investig Drugs 19, 1355-1366). Previous studies have shown that allosteric inhibitors of AKT require the presence of an intact PH-KD interface for their activity. Given that some AKT1 somatic mutants have impaired PH-KD contacts, it was predicted that allosteric inhibitors are likely to be less efficacious in inhibiting the activity of these mutants.

[2] = target: T1, WT AKT1 enzyme (Homo sapiens, UniProt P31749); assay: biochemical activity assay, recombinant full-length WT AKT1 enzyme; conditions: in words
T1 construct: were tested on recombinant full-length WT and mutant AKT1 enzymes
T1 sequence (P31749 whole entry): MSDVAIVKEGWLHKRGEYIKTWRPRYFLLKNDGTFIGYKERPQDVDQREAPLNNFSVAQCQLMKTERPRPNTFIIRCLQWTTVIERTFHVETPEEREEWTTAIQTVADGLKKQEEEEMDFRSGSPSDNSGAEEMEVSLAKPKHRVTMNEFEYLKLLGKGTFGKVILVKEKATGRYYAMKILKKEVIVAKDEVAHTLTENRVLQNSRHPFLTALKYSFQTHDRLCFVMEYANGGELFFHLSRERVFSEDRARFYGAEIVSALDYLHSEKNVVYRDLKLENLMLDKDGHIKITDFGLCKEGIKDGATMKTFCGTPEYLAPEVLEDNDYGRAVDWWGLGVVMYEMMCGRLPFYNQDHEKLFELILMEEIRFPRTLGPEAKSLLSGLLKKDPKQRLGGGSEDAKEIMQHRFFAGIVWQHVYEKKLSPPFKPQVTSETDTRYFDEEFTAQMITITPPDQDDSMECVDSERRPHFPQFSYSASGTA
Text: Several ATP-competitive and allosteric small molecule inhibitors of AKT are in development and/or clinical trials (Mattmann et al., (2011). Expert Opin Ther Pat.; Pal et al., (2010). Expert Opin Investig Drugs 19, 1355-1366).

[3] = target: T2, AKT1 kinase domain alone (Homo sapiens, UniProt P31749); assay: in vitro biochemical assay, AKT1 kinase domain alone; conditions: purified recombinant kinase domain, no PH domain
T2 construct: using purified recombinant PH and kinase domains
T2 sequence (P31749 150-408 limits assumed): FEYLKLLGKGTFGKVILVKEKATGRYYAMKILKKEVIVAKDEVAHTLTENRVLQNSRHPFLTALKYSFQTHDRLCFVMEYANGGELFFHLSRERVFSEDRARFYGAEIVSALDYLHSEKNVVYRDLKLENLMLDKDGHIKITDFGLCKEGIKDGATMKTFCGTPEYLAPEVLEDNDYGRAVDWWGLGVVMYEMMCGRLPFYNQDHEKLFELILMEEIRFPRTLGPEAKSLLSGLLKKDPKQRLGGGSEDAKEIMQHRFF
Description: (§2) To confirm that the reduced sensitivity of the mutants to allosteric inhibitors was due to the impaired PH-KD interactions, an in vitro biochemical reconstitution assay was performed using purified recombinant PH and kinase domains.

[4] = test system: NIH3T3 cells expressing WT or AKT1 mutants; assay: cell based proliferation assay, NIH3T3 cells expressing WT or AKT1 mutants
Text: as §1

[5] = test system: AKT1 kinase domain reconstituted with WT PH domain; assay: in vitro biochemical reconstitution assay, WT PH domain added to kinase domain
Description: as §2

[6] = target: T3, WT PH domain reconstituted with mutant D323H kinase domain (Homo sapiens, UniProt P31749, D323H); assay: in vitro biochemical reconstitution assay, WT PH domain with D323H kinase domain; conditions: in words
T3 construct: using purified recombinant PH and kinase domains
T3 sequence (P31749 150-408 D323H limits assumed): as the sequence (P31749 150-408 limits assumed) above, with D174H counted along it
Description: as §2

[7] = test system: pGSK-3β; assay: surrogate PD biomarker assay: phospho-GSK-3β in platelet rich plasma of patients; assay type: in vivo, human; conditions: doses≥200 mg, ratio to pre-dose
Description: Phospho-GSK-3b in Platelet rich plasma (PRP) was used as a surrogate PD biomarker to measure Akt pathway inhibition in patients after treatment with GDC-0068 at different time points over 22 days. Peripheral blood was collected in Vacutainer containing 0.38% of citrate as anti-coagulant. Blood was spun at 200 g for 15 min at room temperature. The PRP layer was carefully taken from the tube and then lysed in a buffer containing detergents, protease and phosphatase inhibitors. Phosphorylated and total GSK-3β levels in PRP lysates were measured using a phospho-GSK3β/total-GSK30 multiplexed MSD assay. pGSk-3β levels were normalized to total GSk-3β levels and post-dose inhibition of pGSk-3β was expressed as a ratio of the pre-dose levels for each patient.

[8] = test system: Cyclin D1; assay: reverse phase protein arrays of tumor biopsies from patients: Cyclin D1; assay type: in vivo, human; conditions: all 3 patients treated at 400 mg daily
Description: (§3) Core-needle tumor biopsies from patients treated with GDCC0068 were flash-frozen in OCT and sectioned into 8 um slices. Tissue was lysed in RPPA lysis buffer containing TPER, 300 mM NaCl and phosphatase inhibitors. Phosphoprotein signatures of the lysates were analysed using Reverse-Phase protein arrays: samples were printed on nitrocellulose slides and stained with Sypro to determine total protein concentrations. Each slide was stained with a different antibody at 4° C. overnight. The data was then normalized to total protein levels and spatial effects were removed using Quadrant median normalization. Decreases of 60%-70% in pPRAS40 and ˜50% decrease in Cyclin D1 (compared with baseline) occurred in all 3 patients treated at 400 mg daily. For methods and overview of RPPA see: Reverse phase protein microarrays advance to use in clinical trials, Molecular Oncology. 2010 December; 4(6):461-81, Mueller C et al. In certain embodiments, the cancer to be treated herein comprises one or more of AKT, PI3k, PTEN and HER2 mutations or AKT, PI3k, PTEN or HER2 abberant signaling. In one example, the cancer is gastric cancer comprising high pAKT activity and PTEN low or null status.

[9] = combo screens with 5FU/Cisplatin; assay type: cell-based; conditions: combination with Cisplatin+5FU; associated with PTEN, pAKT, PI3K mutation
Text: FIG. 15 depicts results that the combination effects of GDC-0068 with Cisplatin+5FU are associated with AKT pathway activation.

[10] = test system: pPRAS40; assay: reverse phase protein arrays of tumor biopsies from patients: pPRAS40; assay type: in vivo, human; conditions: all 3 patients treated at 400 mg daily
Description: as §3

[11] = test system: xenograft models; assay: single agent activity in xenograft models; assay type: in vivo; conditions: models with AKT pathway activation and without MEK pathway activation
[12] = test system: cell lines with AKT pathway activation (PTEN loss, PI3K mutations); assay: combination with MEK inhibitor in cell lines, BLISS analysis; assay type: cell-based; conditions: in combination with a MEK inhibitor (GDC-0973)
Text: BLISS analysis indicates broad synergy for GDC-0068 in combination with a MEK inhibitor (GDC-0973).

Structure (SMILES): CCn1c(-c2nonc2N)nc2c(C#CC(C)(C)O)ncc(OC[C@H]3CCCNC3)c21 [GSK690693]
- blocking the activity of the mutant enzymes ([1]; E17K, L52R and D323H): effective
- blocking the activity of the WT AKT1 enzyme [2]: effective

Structure (SMILES): NC(=O)[C@@H]1CCCCN1CCCN(C(=O)c1cccs1)c1nc(-c2ccncc2)cs1 [GNE-929]
- effectiveness against recombinant full-length mutant enzymes compared to WT AKT1 [1]: less effective

Structure (SMILES): O=c1[nH]c2ccccc2n1C1CCN(Cc2ccc(-c3nc4cc5[nH]cnc5cc4nc3-c3ccccc3)cc2)CC1 [Inhibitor VIII]
- blocking activity of AKT1 kinase domain alone [3]: unable to block its activity
- less effective at blocking proliferation of cells expressing mutant AKT1 compared to WT AKT [4]: at least 50%
- increase in IC50 for the reconstituted enzyme compared to the full length WT enzyme [5]: three fold
- IC50 ([5]; reconstituted enzyme, WT PH domain + kinase domain): 239 nM
- activity when WT PH domain was reconstituted with mutant D323H kinase domain [6]: no activity

Structure (SMILES): CC(C)NC[C@@H](C(=O)N1CCN(c2ncnc3c2[C@H](C)C[C@H]3O)CC1)c1ccc(Cl)cc1 [GDC-0068]
- decrease in pGSK3β level [7]: ≥ 75%
- decrease in Cyclin D1 compared with baseline [8]: ~50%
- combination effect [9]: additive effects
- decrease in pPRAS40 compared with baseline [10]: 60%-70%
- single agent efficacy in xenograft models [11]: Robust efficacy
- combination effect, BLISS analysis [12]: broad synergy
